Data as given in BindingDB's records for doi:10.1016/s1074-5521(98)90086-2 (Duke University, 1998).

Target: 1-aminocyclopropane-1-carboxylate oxidase 1 (Malus domestica, UniProt Q00985)
Assay: Inhibition Assay
Excerpt: Enzyme inhibition assay using ethylene-forming enzyme (EFE).

Sequence of 1-aminocyclopropane-1-carboxylate oxidase 1 (Q00985 whole entry): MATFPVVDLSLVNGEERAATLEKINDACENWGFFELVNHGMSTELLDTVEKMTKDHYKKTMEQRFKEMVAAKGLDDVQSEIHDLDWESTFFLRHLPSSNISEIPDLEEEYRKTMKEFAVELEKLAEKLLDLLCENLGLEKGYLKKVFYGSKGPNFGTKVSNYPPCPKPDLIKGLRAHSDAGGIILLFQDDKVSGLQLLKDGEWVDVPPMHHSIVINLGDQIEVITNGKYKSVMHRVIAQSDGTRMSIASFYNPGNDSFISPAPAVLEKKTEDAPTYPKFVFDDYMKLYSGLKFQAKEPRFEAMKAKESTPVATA

Structure (SMILES)	Ki [µM]
CC(C)(N)C(=O)O [Aminoisobutyric (AIB)]	150
NC1(C(=O)O)CCC1 [Aminocyclobutanecarboxylic acid (ACBC)]	220
O=C(O)C1(NO)CCC1 [N-Hydroxyaminocyclobutanecarboxylic acid]	18
CC(C)(NO)C(=O)O [N-hydroxy aminoisobutryic acid]	13
